According to paper PMC4105567, “Aurora Kinases as Druggable Targets in Pediatric Leukemia: Heterogeneity in Target Modulation Activities and Cytotoxicity by Diverse Novel Therapeutic Agents” (PLoS ONE, 2014):
Read-outs that look alike come from different tables or passages of the source.

Key:
NB4 APML cell line = assay: Cytotoxicity assay, NB4; format: cell-based, human; conditions: Homo sapiens, 96 h, four days in culture, Alamar blue assay or automated microscopy, ± SD, three experiments
Experimental: (§1) Cell lines were cultured in Opti-MEM medium (Gibco, Life Technologies Corporation, Burlington, Ontario) supplemented with 10% heat inactivated fetal bovine serum (FBS) (Gibco), 100 units/ml penicillin and 100 units/ml streptomycin (Gibco) and 0.05 mM 2-mercaptoethanol (Sigma-Aldrich, Oakville, Ontario) in T25 flasks (Nalge Nunc, Rochester, New York) or T75 flasks (Corning Incorporated, Corning, New York). All cell cultures were maintained at 37°C in a humidified incubator with 5% CO2.
(§2) For cytotoxicity profiling of Aurora kinase inhibitors against leukemia cell lines, inhibitors or vehicle control (DMSO, Sigma-Aldrich) were diluted in 100 µl of Opti-MEM per well in 96 well plates (Grenier Bio-One, Monroe, North Carolina) in triplicate at final concentrations ranging from 1×10^−6 to 10 µM. 1×10^4 cells per well were seeded and plates were incubated for 4 days. Following incubation for 4 days, cell survival was quantified by Alamar blue assay (Invitrogen) or automated inverted microscopy using the Celigo Cell Cytometer (Cyntellect, San Diego, California). […] During this period of incubation, the absorbance at 570–620 nm was measured (Opsys MR Plate Reader, Dynex Technologies, Chantilly, Virginia) at various time points, depending on the cell line or sample. Percent survival was calculated by comparing the absorbance ratio of the test well to the control well multiplied by 100%, as indicated in the following formula: […]
(§3) For automated inverted microscopy, the number of cells in each well was determined using the direct cell counting application as described previously. Briefly, following adjustment of image acquisition settings for bright-field imaging, the wells containing cells and appropriate dilutions of inhibitors were individually scanned. Based on these images, analysis parameters, including intensity threshold and cell diameter, were modified for optimal inclusion of viable cells in treated and control wells. These parameters were applied for subsequent replicates involving the same leukemia cell line or sample. The percent survival was then calculated as a ratio of the number of cells in treated wells to the number of cells in control wells multiplied by 100%. Given that Aurora kinase inhibitors interfere with cytokinesis, cells that are committed to death may still contain enlarging but intact cytoplasmic content before the eventual loss of cytoplasmic membrane integrity. The accuracy of Alamar blue assay may be, in theory, affected by the timing of these events.

Nalm6 B-ALL cell line = assay: Cytotoxicity assay, Nalm6; format: cell-based, human; conditions: Homo sapiens, NALM-6, 96 h, four days in culture, Alamar blue assay or automated microscopy, ± SD, three experiments
Experimental: as §1, §2, §3

[1] = test system: Patient #2 relapsed AML primary leukemia cells; assay: Cytotoxicity assay, primary sample Patient #2; format: cell-based, human; conditions: Homo sapiens, 96 h, four days in culture, Alamar blue assay or automated microscopy, one complete study
Experimental: (§4) These include B-ALL (Patient #1), relapsed AML (Patient #2), AML/CML (Patient #3), infant ALL (Patient #4), and initial ALL presenting with secondary AML (Patient #5). […] The diluted sample was then layered on a Ficoll-Paque (GE Healthcare, Piscataway, New Jersey) gradient at a 1∶2 ratio of Ficoll to diluted sample. Samples were then centrifuged 1800 rpm for 20 minutes at room temperature. The buffy coat was removed with a pipette and transferred to a new centrifuge tube and diluted with PBS. After an additional centrifugation at 1200 rpm, the white blood cell pellet was washed with PBS and centrifuged one last time. Cells were re-suspended in Opti-MEM and viable cells were counted using trypan blue (Invitrogen, Life Technologies Corporation, Burlington, Ontario) exclusion on a haemocytometer. An identical protocol was followed for the isolation of white blood cells, referred to as “normal lymphocytes” in the following paragraphs, from healthy volunteers. Samples grown in culture for up to six months were cultured in Opti-MEM medium supplemented with 10% heat inactivated FBS, penicillin/streptomycin and 2-mercaptoethanol.
as §2, §3

B1 B-ALL cell line = assay: Cytotoxicity assay, B1; format: cell-based, human; conditions: Homo sapiens, 96 h, four days in culture, Alamar blue assay or automated microscopy, ± SD, three experiments
Experimental: as §1, §2, §3

MV4-11 AML cell line = assay: Cytotoxicity assay, MV4-11; format: cell-based, human; conditions: Homo sapiens, 96 h; AML cell line MV4-11; four days in culture; Alamar blue assay or automated microscopy; ± SD, three experiments
Experimental: as §1, §2, §3

[2] = test system: Patient #3 AML/CML primary leukemia cells; assay: Cytotoxicity assay, primary sample Patient #3; format: cell-based, human; conditions: Homo sapiens, 96 h, four days in culture, Alamar blue assay or automated microscopy, one complete study
Experimental: as §4, §2, §3

SEM B-ALL cell line = assay: Cytotoxicity assay, SEM; format: cell-based; conditions: Homo sapiens, 96 h, four days in culture, Alamar blue assay or automated microscopy, ± SD, three experiments
Experimental: as §1, §2, §3

Molm13 AML cell line = assay: Cytotoxicity assay, Molm13; format: cell-based, human; conditions: Homo sapiens, MOLM-13, 96 h, four days in culture, Alamar blue assay or automated microscopy, ± SD, three experiments
Experimental: as §1, §2, §3

[3] = test system: Patient #1 B-ALL primary leukemia cells; assay: Cytotoxicity assay, primary sample Patient #1; format: cell-based, human; conditions: Homo sapiens, 96 h, four days in culture, Alamar blue assay or automated microscopy, one complete study
Experimental: as §4, §2, §3

HL-60 APML cell line = assay: Cytotoxicity assay, HL-60; format: cell-based, human; conditions: Homo sapiens, 96 h; APML cell line HL-60; four days in culture; Alamar blue assay or automated microscopy; ± SD, three experiments
Experimental: as §1, §2, §3

C1 B-ALL cell line = assay: Cytotoxicity assay, C1; format: cell-based, human; conditions: Homo sapiens, 96 h, four days in culture, Alamar blue assay or automated microscopy, ± SD, three experiments
Experimental: as §1, §2, §3

Aurora-C = conditions: read-out: Targets (IC50 Value): Aurora-C; literature values; ref [10],[40],[44]–[64] as listed per inhibitor in Table 1; cited from earlier work
CEM T-ALL cell line = assay: Cytotoxicity assay, CEM; format: cell-based, human; conditions: Homo sapiens, 96 h, four days in culture, Alamar blue assay or automated microscopy, ± SD, three experiments
Experimental: as §1, §2, §3

TIB-202 AML cell line = assay: Cytotoxicity assay, TIB-202; format: cell-based, human; conditions: Homo sapiens, 96 h; AML cell line TIB-202; four days in culture; Alamar blue assay or automated microscopy; ± SD, three experiments
Experimental: as §1, §2, §3

HL-60 RA APML cell line = assay: Cytotoxicity assay, HL-60 RA; format: cell-based, human; conditions: Homo sapiens, 96 h; APML cell line HL-60 RA; four days in culture; Alamar blue assay or automated microscopy; ± SD, three experiments
Experimental: as §1, §2, §3

Bone Marrow Stroma = assay: Cytotoxicity assay, bone marrow stroma; format: cell-based, human; conditions: Homo sapiens, 96 h; bone marrow stroma (control for non-leukemia cytotoxicity); four days in culture; ± SD, three experiments
Experimental: as §2, §3

[4] = test system: normal cells versus leukemia cell lines; assay: Comparison of cytotoxicity IC50 values, normal cells versus leukemia cell lines; format: cell-based, human; conditions: normal lymphocytes and bone marrow stroma versus leukemia cell lines of Table 2
Experimental: as §2, §3

Normal Lymphocytes = assay: Cytotoxicity assay, normal lymphocytes; format: cell-based, human; conditions: Homo sapiens, Lymphocyte, 96 h; normal lymphocytes (control for non-leukemia cytotoxicity); four days in culture; ± SD, three experiments
Experimental: as §4, §2, §3

KOPN8 B-ALL cell line = assay: Cytotoxicity assay, KOPN8; format: cell-based, human; conditions: Homo sapiens, KOPN-8, 96 h, four days in culture, Alamar blue assay or automated microscopy, ± SD, three experiments
Experimental: as §1, §2, §3

[5] = test system: Patient #4 infant leukemia primary cells; assay: Cytotoxicity assay, primary sample Patient #4; format: cell-based, human; conditions: Homo sapiens, 96 h, four days in culture, Alamar blue assay or automated microscopy, one complete study
Experimental: as §4, §2, §3

UOCB1 B-ALL cell line = assay: Cytotoxicity assay, UOCB1; format: cell-based, human; conditions: Homo sapiens, UoC-B1, 96 h, four days in culture, Alamar blue assay or automated microscopy, ± SD, three experiments
Experimental: as §1, §2, §3

Molt-3 T-ALL cell line = assay: Cytotoxicity assay, Molt-3; format: cell-based, human; conditions: Homo sapiens, 96 h; T-ALL cell line Molt-3; four days in culture; Alamar blue assay or automated microscopy; ± SD, three experiments
Experimental: as §1, §2, §3

[6] = test system: Patient #5 ALL/AML primary leukemia cells; assay: Cytotoxicity assay, primary sample Patient #5; format: cell-based, human; conditions: Homo sapiens, 96 h, read-out: IC50, Patient #5 ALL/AML
Experimental: as §4, §2, §3

Aurora-B = test system: Aurora-B; parameters: method as in earlier work; conditions: literature values; ref [10],[22],[27],[40],[44]–[64] as listed per inhibitor in Table 1; read-out: Targets (IC50 Value): Aurora-B; cited from earlier work
[7] = primary sample, four days in culture, Alamar blue assay or automated microscopy, one complete study

Structure (SMILES)	IC50 (NB4 APML cell line) [nM]	IC50 (Nalm6 B-ALL cell line) [nM]	IC50 [1] [nM]	IC50 (B1 B-ALL cell line) [nM]	IC50 (MV4-11 AML cell line) [nM]	IC50 [2] [nM]	IC50 (SEM B-ALL cell line) [nM]	IC50 (Molm13 AML cell line) [nM]	IC50 [3] [nM]	IC50 (HL-60 APML cell line) [nM]	IC50 (C1 B-ALL cell line) [nM]	IC50 (Aurora-C) [nM]	IC50 (CEM T-ALL cell line) [nM]	IC50 (TIB-202 AML cell line) [nM]	IC50 (HL-60 RA APML cell line) [nM]	IC50 (Bone Marrow Stroma) [nM]	IC50 (Normal Lymphocytes) [nM]	IC50 (KOPN8 B-ALL cell line) [nM]	IC50 [5] [nM]	IC50 (UOCB1 B-ALL cell line) [nM]	also measured
CO[C@@H](C(=O)N1Cc2n[nH]c(NC(=O)c3ccc(N4CCN(C)CC4)cc3)c2C1)c1ccccc1 [PHA-739358]	200 ± 100	9 ± 0.9	300	2000 ± 900	3 ± 2	> 10000	80 ± 20	6 ± 1	0.9	900 ± 100	8 ± 1	61	10 ± 6	2000 ± 900	7 ± 1	3000 ± 1000	> 10000	2 ± 1	> 10000	60 ± 20	IC50 values for the normal cells compared with IC50 values for the leukemia cell lines (potential therapeutic window) [4]: lower than the IC50 values for the normal cells, but not as pronounced; IC50 (Molt-3 T-ALL cell line): 4 ± 2 nM; IC50 [6, 7]: 1 nM
O=C(Nc1cccc(Cl)c1)Nc1ncc(CCNc2ncnc3ccsc23)s1 [SNS-314]	6 ± 4	< 0.001	0.5	< 0.001	< 0.001	4000	< 0.001	< 0.001	< 0.001	0.02	< 0.001	3	< 0.001	< 0.001	< 0.001	> 10000	4000 ± 2000	< 0.001	8000	< 0.001	IC50 (Molt-3 T-ALL cell line): < 0.001 nM; IC50 [6]: < 0.001 nM
Cc1nc(N)sc1-c1ccnc(Nc2ccc(N3CCOCC3)cc2)n1 [CYC116]	3000 ± 2000	500 ± 300	70	1000 ± 600	5 ± 4	> 10000	100 ± 4	400 ± 200	10	7000 ± 3000	200 ± 100	69	70 ± 9	600 ± 50	300 ± 80	5000 ± 2000	> 10000	1000 ± 600	> 10000	200 ± 90	IC50 values for the normal cells compared with IC50 values for the leukemia cell lines (potential therapeutic window) [4]: lower than the IC50 values for the normal cells, but not as pronounced; IC50 (Molt-3 T-ALL cell line): 70 ± 20 nM; IC50 [6, 7]: 0.4 nM
CCc1cccc(CC)c1NC(=O)N1Cc2n[nH]c(NC(=O)c3ccc(N4CCN(C)CC4)cc3)c2C1 [PHA-680632]	900 ± 90	400 ± 200	2000	5000 ± 900	300 ± 200	> 10000	800 ± 300	30 ± 20	10	6000 ± 2000	100 ± 50	120	300 ± 100	6000 ± 1000	90 ± 10	2000 ± 900	> 10000	60 ± 20	> 10000	1000 ± 500	IC50 (Aurora-B): 135 nM; IC50 values for the normal cells compared with IC50 values for the leukemia cell lines (potential therapeutic window) [4]: lower than the IC50 values for the normal cells, but not as pronounced; IC50 (Molt-3 T-ALL cell line): 100 ± 60 nM; IC50 [6]: 0.8 nM
